Among the data in US12486269B2 (Aconcagua Bio, Inc., priority 2024, dated 2025) are EC50 values, retold here.

Molecules are shown by their SMILES.

Usually EC50 stands for the concentration giving half of the maximal effect.

In test [1] the target is T1, COS-7/AMY3 (human calcitonin receptor (CTR) and RAMP3) (Homo sapiens, UniProt O60896+P30988).
T1 construct: expressed in transfected cells; host or cells: COS-7
In words: Amylin Receptor cAMP Assay II. In kind it is cell-based. The settings on record: values marked **: Amylin Receptor cAMP Assay II; COS-7/AMY3 cells, cAMP dynamic 2 kit, 30 min; read-out: Amylin Receptor cAMP Stimulation Activity: EC50. In a few lines: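 Agonist-induced cAMP was quantified by HTRF ratio at 665/615 nm and expressed as % of the window from vehicle to MAX control. Stimulation lasted 30 min at 37 °C in HBSS/20 mM HEPES/0.5 mM IBMX/0.1% casein, using stable human CTR+RAMP3 (AMY3) COS-7 cells at 2000 per well.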

In test [2] the target is T2, human calcitonin receptor (CTR) (Homo sapiens, UniProt P30988).
T2 construct: expressed in transfected cells; host or cells: COS-7 (COS7-human CTR Clone #2)
T2 sequence (P30988 25-474): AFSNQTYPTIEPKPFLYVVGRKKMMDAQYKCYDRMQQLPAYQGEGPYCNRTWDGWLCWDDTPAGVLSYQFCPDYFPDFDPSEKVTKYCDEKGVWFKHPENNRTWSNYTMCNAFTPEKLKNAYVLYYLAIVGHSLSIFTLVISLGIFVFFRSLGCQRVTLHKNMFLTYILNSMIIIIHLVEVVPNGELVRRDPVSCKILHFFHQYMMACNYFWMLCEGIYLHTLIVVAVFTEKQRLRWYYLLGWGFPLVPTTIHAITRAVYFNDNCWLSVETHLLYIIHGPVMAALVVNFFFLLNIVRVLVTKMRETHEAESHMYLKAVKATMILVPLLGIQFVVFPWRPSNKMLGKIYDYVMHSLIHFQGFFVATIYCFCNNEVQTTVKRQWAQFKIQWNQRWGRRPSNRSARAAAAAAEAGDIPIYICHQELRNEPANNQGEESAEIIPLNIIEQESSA
In words: Calcitonin Receptor (CTR) cAMP Assay. In kind it is cell-based. The settings on record: COS7-human CTR Clone #2 stable cell line, cAMP dynamic 2 kit, 30 min; read-out: Calcitonin Receptor cAMP Stimulation Activity: EC50. The method, boiled down: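 cAMP accumulation was measured by HTRF cAMP dynamic 2 read at 665/615 nm, 1 h at room temperature, with results scaled between vehicle and positive control. Before detection, COS7-human CTR stable cells were stimulated 30 min at 37 °C with compound (4-fold dilutions) in IBMX-containing HBSS/HEPES/casein buffer.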

T1 sequence (O60896 24-148, one chain of several): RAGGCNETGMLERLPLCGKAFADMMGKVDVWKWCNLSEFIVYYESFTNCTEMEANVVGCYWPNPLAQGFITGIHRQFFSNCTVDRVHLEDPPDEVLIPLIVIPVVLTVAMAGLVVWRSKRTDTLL

With `C[C@@H](Nc1nccc2cc(-c3c4c(nc(CCc5ccc(F)cc5)c3-c3n[nH]c(=O)o3)[C@@H]3CCCN3C4=O)sc12)c1ccc(F)cc1F` [Compound 228, 5-((S)-4-(7-(((R)-1-(2,4-difluorophenyl)ethyl)amino)thieno[2,3-c]pyridin-2-yl)-2-(4-fluorophenethyl)-5-oxo-7,8,9,9a-tetrahydro-5H-pyrido[2,3-a]pyrrolizin-3-yl)-1,3,4-oxadiazol-2(3H)-one], the EC50 in test [1] was 3030 nM; in test [2], 25.7 nM.

As for `COc1cccc2c1CC[C@H]2Nc1nccc2cc(-c3c4c(nc(CCc5ccc(F)cc5)c3-c3n[nH]c(=O)o3)[C@H]3CCCN3C4=O)sc12` [Compound 229, 5-((R)-2-(4-fluorophenethyl)-4-(7-(((R)-4-methoxy-2,3-dihydro-1H-inden-1-yl)amino)thieno[2,3-c]pyridin-2-yl)-5-oxo-7,8,9,9a-tetrahydro-5H-pyrido[2,3-a]pyrrolizin-3-yl)-1,3,4-oxadiazol-2(3H)-one], the results for the half-maximal effective concentration (EC50) in test [1] and in test [2] were 48.4 nM and 13.4 nM, respectively.

For the compound `COc1cccc2c1CC[C@H]2Nc1nccc2cc(-c3c4c(nc(CCc5ccc(F)cc5)c3-c3n[nH]c(=O)o3)[C@@H]3CCCN3C4=O)sc12` [Compound 230, 5-((S)-2-(4-fluorophenethyl)-4-(7-(((R)-4-methoxy-2,3-dihydro-1H-inden-1-yl)amino)thieno[2,3-c]pyridin-2-yl)-5-oxo-7,8,9,9a-tetrahydro-5H-pyrido[2,3-a]pyrrolizin-3-yl)-1,3,4-oxadiazol-2(3H)-one], the half-maximal effective concentration (EC50) is 17.4 nM in test [1] and 0.51 nM in test [2].

With `N#Cc1ccc(Cn2ccc3cc(-c4c5c(nc(CCC67CCC(CC6)OC7)c4-c4n[nH]c(=O)o4)[C@@H]4CCCN4C5=O)cnc32)c(F)c1` [Compound 231, (S)-4-((5-(2-(2-(2-oxabicyclo[2.2.2]octan-4-yl)ethyl)-5-oxo-3-(5-oxo-4,5-dihydro-1,3,4-oxadiazol-2-yl)-7,8,9,9a-tetrahydro-5H-pyrido[2,3-a]pyrrolizin-4-yl)-1H-pyrrolo[2,3-b]pyridin-1-yl)methyl)-3-fluorobenzonitrile], the EC50 in test [1] is 15300 nM; in test [2] it was 171 nM.

For `O=C1c2c(nc(CCC34CCC(CC3)OC4)c(-c3n[nH]c(=O)o3)c2-c2cnc3c(ccn3Cc3ccc(F)cn3)c2)[C@@H]2CCCN12` [Compound 232, (S)-5-(2-(2-(2-oxabicyclo[2.2.2]octan-4-yl)ethyl)-4-(1-((5-fluoropyridin-2-yl)methyl)-1H-pyrrolo[2,3-b]pyridin-5-yl)-5-oxo-7,8,9,9a-tetrahydro-5H-pyrido[2,3-a]pyrrolizin-3-yl)-1,3,4-oxadiazol-2(3H)-one], the EC50 in test [1] amounted to 12000 nM; in test [2], 412 nM.

For the compound `O=C1c2c(nc(CCC34CCC(CC3)OC4)c(-c3n[nH]c(=O)o3)c2-c2cnc3c(ccn3Cc3ncc(Cl)cc3F)c2)[C@@H]2CCCN12` [Compound 233, (S)-5-(2-(2-(2-oxabicyclo[2.2.2]octan-4-yl)ethyl)-4-(1-((5-chloro-3-fluoropyridin-2-yl)methyl)-1H-pyrrolo[2,3-b]pyridin-5-yl)-5-oxo-7,8,9,9a-tetrahydro-5H-pyrido[2,3-a]pyrrolizin-3-yl)-1,3,4-oxadiazol-2(3H)-one], the concentration for a half-maximal effect (EC50) was 1820 nM in test [1] and 36.3 nM in test [2].

As to `COc1cccc2c1CC[C@H]2Nc1nccc2cc(-c3c4c(nc(CCc5ccc(F)cc5)c3-c3n[nH]c(=O)o3)[C@H]3COCCN3C4=O)sc12` [Compound 234, (S)-2-(4-fluorophenethyl)-4-(7-(((R)-4-methoxy-2,3-dihydro-1H-inden-1-yl)amino)thieno[2,3-c]pyridin-2-yl)-3-(5-oxo-4,5-dihydro-1,3,4-oxadiazol-2-yl)-7,8,10,10a-tetrahydro-5H-pyrido[2′,3′:3,4]pyrrolo[2,1-c][1,4]oxazin-5-one], the EC50 came to 48.1 nM in test [1] and 1.83 nM in test [2].
